This assay concerns the target PfuTurbo DNA polymerase (Pyrococcus furiosus, UniProt P61875). Put plainly: In vitro polymerase extension assay on KP1212-containing M13 template. Type of assay: biochemical. On the procedure: (A) A 16mer oligonucleotide containing KP1212 (SEQ ID NO: 1) (or controls) at a specific site was chemically synthesized and ligated into the genome of an M13 bacteriophage. (B) The KP1212-containing M13 genomes were replicated within E. coli cells. Progeny were analyzed to characterize the amount and the type of nucleic acid base placed opposite the lesion during replication. The relative reduction in lesion vs. non-lesion competitor progeny formation was used as an estimate of the extent to which KP1212 and m3C inhibited DNA replication. (C) The KP1212-containing M13 genomes were used as templates for in vitro polymerase extension assays, carried out at 72° C., using the high-fidelity DNA polymerase PfuTurbo. (D) Bypass efficiency (CRAB assay) of KP1212, m3C, C in HK81 (AlkB^+) and HK82 (AlkB^−) E. coli cells. m3C and undamaged C were used as controls. Genomes were made and normalized to one another before being combined with a competitor genome. Each mixture was transformed into the corresponding cell strain in triplicate, and bypass efficiency was calculated by using the undamaged C genome as 100% bypass, with error bars representing one standard deviation. (E) Mutagenesis (REAP assay) of KP1212, m3C, and C in HK82 (AlkB^−) E. coli cells. m3C, undamaged C, and an approximately equimolar mixture of genomes carrying unmodified G/A/T/C bases at the site of inquiry (denoted as GATC) were used as controls. Genomes containing the lesions of interest were transfected into E. coli in triplicate.
The single-stranded, lesion-containing genomes, constructed above were also used as templates for in vitro polymerase extension assays. Fifty fmol of each genome were mixed with 50 pmol of REAP forward and reverse primers, 1.25 U Pfu Turbo DNA polymerase and 5 nmol of each dNTP in 1×Pfu Turbo buffer. […] Subsequently, 29 PCR cycles amplified the newly formed strand and generated a product that was then analyzed using the exact downstream steps of the REAP assay described above. […]

[1] abbreviates: in vitro, 72° C., PfuTurbo DNA polymerase (FIG. 18C).

SMILES strings stand for the structures.

Chain of PfuTurbo DNA polymerase (P61875 whole entry): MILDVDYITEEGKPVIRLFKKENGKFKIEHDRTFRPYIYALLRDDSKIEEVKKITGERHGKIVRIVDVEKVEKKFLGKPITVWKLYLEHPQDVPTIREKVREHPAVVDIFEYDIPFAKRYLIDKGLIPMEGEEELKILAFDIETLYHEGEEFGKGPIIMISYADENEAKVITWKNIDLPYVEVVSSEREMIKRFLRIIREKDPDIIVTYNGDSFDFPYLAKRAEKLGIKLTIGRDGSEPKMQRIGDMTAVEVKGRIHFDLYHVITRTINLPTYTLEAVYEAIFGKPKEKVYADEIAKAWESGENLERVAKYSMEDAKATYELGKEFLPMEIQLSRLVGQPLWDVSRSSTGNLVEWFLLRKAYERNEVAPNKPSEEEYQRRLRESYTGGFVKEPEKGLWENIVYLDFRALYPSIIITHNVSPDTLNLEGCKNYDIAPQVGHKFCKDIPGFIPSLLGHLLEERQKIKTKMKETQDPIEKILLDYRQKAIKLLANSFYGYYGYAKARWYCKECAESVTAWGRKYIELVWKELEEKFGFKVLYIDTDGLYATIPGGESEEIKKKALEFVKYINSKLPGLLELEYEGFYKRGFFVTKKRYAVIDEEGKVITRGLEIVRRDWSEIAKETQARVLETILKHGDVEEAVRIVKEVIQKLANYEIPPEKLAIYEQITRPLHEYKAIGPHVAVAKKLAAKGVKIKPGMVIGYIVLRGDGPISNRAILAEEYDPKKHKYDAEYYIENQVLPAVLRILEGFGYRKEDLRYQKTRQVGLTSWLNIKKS

Regarding `NC1=NC(=O)N([C@H]2C[C@H](O)[C@@H](CO)O2)CN1` [KP1212, 5-aza-5,6-dihydro-2′-deoxycytidine], the “pH dependence of mispairing frequency” value (in vitro polymerase extension reaction, pH 7.0 and 7.8, preliminary studies) is listed as “did not vary significantly”. Under setting [1], the “A placed opposite KP1212” value is recorded as 9.5 % of the time and the “G placed opposite KP1212” value was 90.5 % of the time.
